Assay results reported in patent US20250041299A1, “THERAPEUTIC TARGETING OF GASTROINTESTINAL STROMAL TUMOR (GIST) BY DISRUPTING THE MENIN-MLL EPIGENETIC COMPLEX” (DANA-FARBER CANCER INSTITUTE, INC., priority 2021, published 2025).
Several values for one entry are separate records, joined by “and”; a condition that tells them apart may be missing. Equal values may be shown once.

How the values were obtained:
[1] = system: GIST-T1 xenografts; assay: RNA-seq on GIST-T1 xenografts; assay type: in vivo, mice; settings: 5 and 10 days of treatment
Procedure: RNA-seq. Total RNA was isolated using a RNeasy Plus Kit (Qiagen Cat #74136), and concentration measured by Nanodrop (Thermo Fisher Scientific) and quality by TapeStation 4200 (Agilent). Library preparation was performed using the NEBNext Ultra II DNA Library Prep Kit (New England Biolabs Cat #E7645S). Paired-end 150 bp sequencing was performed on a NovaSeq 6000 (Illumina). RNA-seq data were aligned to hg19 using STAR (Dobin et al., Bioinformatics 29:15-21 (2012)) with expression quantification using Cufflinks (Trapnell et al., Nat. Biotechnol. 28:511-5 (2010)) to generate gene expression values in fragments per kilobase of transcript per million mapped reads (FPKM) units. Gene set enrichment analysis (GSEA, RRID: SCR_003199) (Subramanian et al., Proc. Natl. Acad. Sci. USA 102:15545-50 (2005)) was performed using Hallmark gene lists in the Molecular Signatures Database. Xenograft Models. […] VTP-50469 (0.1% in chow) or combination treatments.

[2] = system: GIST cells; assay: Cell cycle analysis (propidium iodide, flow cytometry); assay type: cell-based, human; settings: 72 hours imatinib
Procedure: (§1) Cell cycle and apoptosis. […] Cells were trypsinized, washed in PBS and fixed in 70% ethanol. Propidium iodide at 25 μg/mL (Life Technologies Cat #P1304MP) and RNAse A at 0.2 mg/mL (Thermo Fischer Scientific Cat #EN0531) were used to stain nuclear DNA. Analysis was performed on a Guava easyCyte Flow Cytometer (Luminex Corporation), and single cells were assessed for nuclear content using Guava InCyte software. Apoptosis and cell death were measured following 72 h of drug treatment using Guava Nexin Reagent (Luminex Corporation Cat #4500-0450) per manufacturer's recommendations. Non-apoptotic cells stain negative for Annexin V and 7-AAD, early apoptotic cells stain positive for Annexin V but negative for 7-AAD and late apoptotic and dead cells stain positive for both Annexin V and 7-AAD. Staining was assayed on a Guava easyCyte Flow Cytometer and data analyzed using Guava InCyte software.

[3] = system: GIST cells; assay: Apoptosis and cell death (Annexin V / 7-AAD, Guava Nexin); assay type: cell-based, human; settings: 72-hour treatment, imatinib 0.5 μM
Procedure: as §1, with “Apoptosis and cell death were measured following 72 h of drug treatment using Guava Nexin Reagent (Luminex Corporation Cat #4500-0450) per manufacturer's recommendations.” left out

[4] = system: GIST-T1 cells; assay: RNA-seq and GSEA of drug-treated GIST-T1 cells; assay type: cell-based, human
Procedure: RNA-seq. Total RNA was isolated using a RNeasy Plus Kit (Qiagen Cat #74136), and concentration measured by Nanodrop (Thermo Fisher Scientific) and quality by TapeStation 4200 (Agilent). Library preparation was performed using the NEBNext Ultra II DNA Library Prep Kit (New England Biolabs Cat #E7645S). Paired-end 150 bp sequencing was performed on a NovaSeq 6000 (Illumina). RNA-seq data were aligned to hg19 using STAR (Dobin et al., Bioinformatics 29:15-21 (2012)) with expression quantification using Cufflinks (Trapnell et al., Nat. Biotechnol. 28:511-5 (2010)) to generate gene expression values in fragments per kilobase of transcript per million mapped reads (FPKM) units. Gene set enrichment analysis (GSEA, RRID: SCR_003199) (Subramanian et al., Proc. Natl. Acad. Sci. USA 102:15545-50 (2005)) was performed using Hallmark gene lists in the Molecular Signatures Database.

[5] = system: GIST-T1 cells; assay: Growth over time assay in GIST-T1; assay type: cell-based, human; settings: all doses tested; day 21 cell count
Text: Cell Culture and Virus Production. All cell lines tested negative for mycoplasma infection on routine surveillance (MilliporeSigma Cat #MP0025-1KT). Human embryonic kidney (HEK) 293 FT (Thermo Fisher Scientific Cat #R70007, RRID: CVCL_6911) and the GIST cell lines GIST-T1 (Cosmo Bio Cat #PMC-GIST01-COS, RRID: CVCL_4976; KIT mutation in exon 11 Δ560-578), GIST430 (RRID: CVCL_7040; KIT mutation in exon 11 Δ560-576), GIST48B (RRID: CVCL_M441: KIT-independent), and GIST882 (RRID: CVCL_7044: KIT mutation in exon 13 K642E) were cultured in Dulbecco's modified Eagle's medium containing 10% FBS, 2 mM L-glutamine, […], and […]. KIT rescue cell lines, which are independent of the KIT enhancer, were generated as previously described (Hemming et al., Cancer Research 79:994-1009 (2019)). Non-commercial cell lines were obtained from the laboratory of Jonathan Fletcher between 2014 and 2016. KIT exons were sequenced to confirm the expected coding mutations and cell identity of GIST cell lines, and cells were thawed from original or derived stocks and used in the described experiments within approximately 3 months. Transfections were performed with X-tremeGene (Roche, Cat #6365809001). Lentiviral production was performed as previously described (Hemming et al., PLOS Biol. 6: e2571-15 (2008)). […]

[6] = system: GIST-T1 cell line xenografts; assay: GIST-T1 cell line xenograft, tumor volume; assay type: in vivo, mice; settings: for tumor volume relative to baseline: WM-1119 50 mg/kg gavage 3 times daily, one value per animal 1-6
Text: Xenograft Models. The PG27 patient derived xenograft was obtained from a patient undergoing clinically indicated surgery and following written informed consent to a Dana-Farber Cancer Institute IRB-approved research protocol. Cryopreserved tumor or the GIST-T1 cell line mixed 1:1 with matrigel were implanted subcutaneously into 6-week-old female nude mice (NU/NU; Charles River Laboratories). GIST-T1 tested negative for mycoplasma and rodent pathogens (Charles River Laboratories). For in vivo assessment of CRISPR/Cas9)-modified cell line growth. GIST-T1/Cas9 cells were treated with the indicated sgRNAs and selected with puromycin in vitro for 14 days prior to bilateral flank implantation. For drug treatment studies, singly engrafted mice were enrolled into treatment groups when tumors reached approximately 100-200 mm^3 in size, as measured by calipers and determined by the tumor volume equation: […]. […] WM-1119 (50 mg/kg gavage 3 times daily. 7 days per week). VTP-50469 (0.1% in chow) or combination treatments. […] Tumors were dissected and fixed in 10% formalin for corollary studies including H&E staining and immunohistochemistry of sectioned tumors. 4 μm sections were cut from fixed and embedded tumors and stained with Ki-67 (1:400, Cell Signaling Technology Cat #9027) and cleaved caspase-3 (1:250, Cell Signaling Technology Cat #9579). Reactions were developed using DAB (Cell Signaling Technology Cat #8059) or NovaRed (Vector Laboratories Cat #SK-4800) substrate kits per manufacturer recommendations. All procedures were conducted under protocols approved by the Institutional Animal Care and Use Committee at Dana-Farber Cancer Institute.

Cc1ccc(NC(=O)c2ccc(CN3CCN(C)CC3)cc2)cc1Nc1nccc(-c2cccnc2)n1 [imatinib]
KIT signaling-dependent transcripts TMEM100 and SPRY2 in xenografts [1]: preferentially reduced | expression of genes regulated by HAND1 in xenografts [1]: decrease in the expression of genes regulated by HAND1 | cell cycle effect [2]: G0/G1 cell cycle arrest | apoptosis and cell death versus DMSO [3]: significant increase in early and late-phase apoptosis and cell death

CC(C)N(C[C@H]1O[C@@H](n2cnc3c(N)ncnc32)[C@H](O)[C@@H]1O)[C@H]1C[C@@H](CCc2nc3cc(C(C)(C)C)ccc3[nH]2)C1 [EPZ-5676]
HAND1-regulated transcriptional programs (GSEA) ([4]; GIST-T1, 5 days): significant disruption | correlation of transcriptional changes with those of VTP-50469 ([4]; GIST-T1, 5 days, RNA-seq): highly correlated | cellular proliferation of GIST-T1 compared to DMSO control or GIST48B [5]: significantly reduced cellular proliferation

O=C(NNS(=O)(=O)c1ccccc1F)c1cc(F)cc(-c2ccccn2)c1 [WM-1119, 2-fluoro-N′-(3-fluoro-5-(pyridin-2-yl)benzoyl)benzenesulfonohydrazide]
tumor volume relative to baseline ([6]; treatment day 1 (baseline)): 100 | tumor volume relative to baseline ([6]; treatment day 5, 50 mg/kg): 175 and 211 and 114 and 133 and 87 and 152 | tumor volume relative to baseline ([6]; treatment day 8, 50 mg/kg): 480 and 322 and 157 and 173 and 131 and 206 | tumor volume relative to baseline ([6]; treatment day 12, 50 mg/kg): 518 and 368 and 287 and 160 and 145 and 260 | tumor volume relative to baseline ([6]; treatment day 14, 50 mg/kg): 527 and 429 and 327 and 181 and 163 and 328 | tumor volume relative to baseline ([6]; treatment day 19, 50 mg/kg): 876 and 501 and 511 and 180 and 268 and 277 | tumor volume relative to baseline ([6]; treatment day 22, 50 mg/kg): 878 and 409 and 489 and 150 and 205 and 361 | tumor volume relative to baseline ([6]; treatment day 27, 50 mg/kg): 856 and 525 and 558 and 202 and 232 and 317 | tumor volume relative to baseline ([6]; treatment day 29, 50 mg/kg): 874 and 532 and 648 and 199 and 221 and 353 | tumor growth compared to vehicle ([6]; end of 28-day treatment period): significant reductions in tumor growth | expression of GIST TFs ([4]; GIST-T1, 5 days): greatest global reduction in TF expression | global gene expression change (RNA-seq) versus DMSO ([4]; GIST-T1 treated 1 and 5 days): modestly altered expression of numerous genes
